Data as given in patent US10881720B2, “Nanoparticles for immune stimulation” (THE BOARD OF REGENTS OF THE UNIVERSITY OF TEXAS SYSTEM, priority 2014, dated 2021).

Key:
[1] = tested on: splenic B cells; assay: In vitro CFSE-dilution proliferation of B220+ B cells in splenocyte culture; assay type: cell-based, WT C57BL/6 mice; settings: over the doses tested (10 pg/ml, 10 ng/ml), three days
Description: (§1) Even activation of both iNKT and B cells by the weak agonist, soluble βGlcCer was enhanced by encapsulation of this glycolipid in nanoparticles (βGC-NanoP). Nanoparticles lacking glycolipids were not stimulatory for either iNKT or B cells in this assay (data not shown). Nanoparticles were assessed by Mass Spectrometry and Scanning Electron Microscopy for lipid content and particle size. In the study, spleen cells were isolated, then labeled with carboxyfluorescein diacetate succinimidyl ester (CFSE) and cultured for 3 days with soluble αGalCer, soluble βGlcCer, αGC-NanoPs, or βGC-NanoPs at concentrations of glycolipid noted. […] FIG. 2B is a graph showing a summary of the data in FIG. 2A. […] FIGS. 2C and 2D show the percentage of B220+ cells that dilute CFSE after 3 days of in vitro culture with soluble αGalCer and αGC-NanoP (FIG. 2C), or soluble βGlcCer and βGC-NanoP (FIG. 2D). Results shown are representative of 2 experiments, duplicate wells. *=p≤0.05 as compared to soluble glycolipid.
Total spleen cells from WT C57BL/6 mice were removed, a single cell suspension was created, and red blood cells were lysed. […] After three days of culture, cells were removed from the wells, labeled with fluorescently tagged lineage specific markers (anti-B220 for B cells and anti-TcRβ plus CD1d-tetramer for iNKT cells) and assessed for cell type specific CFSE dilution by FACS analysis. […]

[2] = tested on: iNKT cells; assay: In vitro CFSE-dilution proliferation of iNKT cells in splenocyte culture; assay type: cell-based, WT C57BL/6 mice; settings: for percent of iNKT cells proliferated (CFSE dilution): three days of culture
Description: as §1
Total spleen cells from WT C57BL/6 mice were removed, a single cell suspension was created, and red blood cells were lysed. Splenocytes were labeled with carboxyfluorescein succinimidyl ester (CFSE) using standard procedures and then cultured at 2×10^6 cells/well in a 96 well flat bottom tissue culture plate. At the initiation of this culture, cells were coincubated with 10 pg/ml or 10 ng/ml of αGalCer, βGlcCer, αGC-NanoP, βGC-NanoP, or left in media only. After three days of culture, cells were removed from the wells, labeled with fluorescently tagged lineage specific markers (anti-B220 for B cells and anti-TcRβ plus CD1d-tetramer for iNKT cells) and assessed for cell type specific CFSE dilution by FACS analysis. […] In comparison, 39% of iNKT cells proliferated in response to αGC-NanoP at the 10 ng/ml dose and 35% responded vigorously to the 10 pg/ml dose.

Row | Compound | B cell proliferation (CFSE dilution) [1] | stimulation of iNKT cells ([2]; either dose tested (10 pg/ml, 10 ng/ml), three days) | percent of iNKT cells proliferated (CFSE dilution) ([2]; 10 pg/ml glycolipid) | percent of iNKT cells proliferated (CFSE dilution) ([2]; 10 ng/ml glycolipid) [%]
1 | βGlucosylceramide [βGlcCer] | not to the doses tested | neither βGlcCer alone nor βGC-NanoP were stimulatory |  | 
2 | CCCCCCCCCCCCCCCCCCCCCCCCCC(=O)N[C@@H](CO[C@H]1O[C@H](CO)[C@H](O)[C@H](O)[C@H]1O)[C@H](O)[C@H](O)CCCCCCCCCCCCCC [αGalCer, αGalactosylceramide] | only to the higher doses |  | not responsive | 44
